For assay [1], the target named is T1, Histone deacetylase 1 (Homo sapiens, UniProt Q13547). The assay is described as follows: Inhibition of full length recombinant human GST fused His6-tagged HDAC1 expressed in baculovirus infected High5 cells using Ac-Lys-Tyr-Lys(epsilon-acetyl)-AMC as substrate measured after 24 hrs.
Another assay concerns the target Histone deacetylase 3 (Homo sapiens, UniProt O15379). The assay is described as follows: Inhibition of full length recombinant human GST fused His6-tagged HDAC3 expressed in baculovirus infected High5 cells using Ac-Lys-Tyr-Lys(epsilon-acetyl)-AMC as substrate measured after 24 hrs.
The target of assay [2] is T2, Protein deacetylase HDAC6 (Homo sapiens, UniProt Q9UBN7).
T2 sequence (Q9UBN7 whole entry): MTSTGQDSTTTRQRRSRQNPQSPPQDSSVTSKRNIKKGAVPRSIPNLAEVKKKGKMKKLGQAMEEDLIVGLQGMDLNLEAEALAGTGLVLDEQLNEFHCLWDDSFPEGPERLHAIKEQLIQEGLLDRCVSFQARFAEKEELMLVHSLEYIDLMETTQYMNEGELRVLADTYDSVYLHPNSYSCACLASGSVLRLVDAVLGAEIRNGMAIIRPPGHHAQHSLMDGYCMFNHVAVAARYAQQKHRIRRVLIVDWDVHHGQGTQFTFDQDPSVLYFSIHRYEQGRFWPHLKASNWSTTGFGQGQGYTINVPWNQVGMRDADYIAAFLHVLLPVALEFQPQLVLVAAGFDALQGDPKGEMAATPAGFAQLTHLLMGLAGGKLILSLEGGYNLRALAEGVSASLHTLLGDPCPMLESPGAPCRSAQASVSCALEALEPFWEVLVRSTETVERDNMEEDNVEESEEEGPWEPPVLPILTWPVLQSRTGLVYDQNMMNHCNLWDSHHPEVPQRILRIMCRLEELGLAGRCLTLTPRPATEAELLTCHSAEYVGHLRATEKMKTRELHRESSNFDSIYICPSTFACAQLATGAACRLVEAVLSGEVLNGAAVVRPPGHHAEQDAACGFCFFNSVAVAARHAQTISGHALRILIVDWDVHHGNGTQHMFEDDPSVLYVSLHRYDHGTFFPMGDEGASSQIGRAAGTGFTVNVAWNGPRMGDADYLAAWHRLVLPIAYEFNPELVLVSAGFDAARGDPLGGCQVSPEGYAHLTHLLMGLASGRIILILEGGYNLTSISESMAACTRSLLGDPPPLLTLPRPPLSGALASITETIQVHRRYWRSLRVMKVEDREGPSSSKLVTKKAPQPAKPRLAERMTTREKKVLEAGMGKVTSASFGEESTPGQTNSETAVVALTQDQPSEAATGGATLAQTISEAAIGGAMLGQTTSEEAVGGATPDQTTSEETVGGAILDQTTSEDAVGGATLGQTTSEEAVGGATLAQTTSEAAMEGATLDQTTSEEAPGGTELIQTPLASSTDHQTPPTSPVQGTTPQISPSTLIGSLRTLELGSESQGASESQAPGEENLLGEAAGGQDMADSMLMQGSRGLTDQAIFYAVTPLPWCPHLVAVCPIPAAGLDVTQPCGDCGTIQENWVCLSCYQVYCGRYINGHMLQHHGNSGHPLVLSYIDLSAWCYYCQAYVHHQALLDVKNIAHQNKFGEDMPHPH
The assay is described as follows: Inhibition of full length recombinant human GST fused His6-tagged HDAC6 expressed in baculovirus infected High5 cells using Boc-Lys(epsilon-acetyl)-AMC as substrate measured after 3 hrs.

A further assay relates to RPMI-8226. Description: Antiproliferative activity against human RPMI8226 cells after 72 hrs by CellTiter 96 AQueous Non-Radioactive assay. Format: functional, cell-based. The note with it: RPMI-8226, 72 h.
For a further assay, the system named is HCT-116. Description: Antiproliferative activity against human HCT116 cells after 72 hrs by CellTiter 96 AQueous Non-Radioactive assay. Format: functional, cell-based. The note with it: HCT-116, 72 h.
Assay [3] concerns the target T1, Histone deacetylase 1. Description: Inhibition of HDAC1 in human RPMI8226 cells assessed as increase in histone H3 acetylation after 24 hrs by western blot analysis. The assay is classed as cell-based. For orientation: In western blotting, separated proteins are transferred to a membrane and probed.
Assay [4] addresses T3, Protein deacetylase HDAC6 (Homo sapiens) (UniProt Q9UBN7).
T3 sequence (whole entry): T2 sequence (Q9UBN7 whole entry)
Description: Inhibition of HDAC6 in human RPMI8226 cells assessed as increase in tubulin acetylation after 24 hrs by western blot analysis. Format: cell-based.

Chain of Histone deacetylase 3 (O15379 whole entry, the tested form may be a part): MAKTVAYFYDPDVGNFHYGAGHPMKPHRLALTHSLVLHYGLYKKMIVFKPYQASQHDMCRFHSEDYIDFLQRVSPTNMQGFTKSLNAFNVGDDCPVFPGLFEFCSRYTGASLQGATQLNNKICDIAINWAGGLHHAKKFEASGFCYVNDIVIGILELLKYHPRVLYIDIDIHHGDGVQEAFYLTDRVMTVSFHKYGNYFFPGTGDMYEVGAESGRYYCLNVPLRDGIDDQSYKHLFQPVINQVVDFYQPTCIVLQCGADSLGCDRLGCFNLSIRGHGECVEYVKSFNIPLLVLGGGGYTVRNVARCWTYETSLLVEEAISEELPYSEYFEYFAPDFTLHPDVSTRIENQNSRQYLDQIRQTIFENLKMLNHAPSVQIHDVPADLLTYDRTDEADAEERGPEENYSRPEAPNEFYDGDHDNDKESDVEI
T1 sequence (Q13547 whole entry, the tested form may be a part): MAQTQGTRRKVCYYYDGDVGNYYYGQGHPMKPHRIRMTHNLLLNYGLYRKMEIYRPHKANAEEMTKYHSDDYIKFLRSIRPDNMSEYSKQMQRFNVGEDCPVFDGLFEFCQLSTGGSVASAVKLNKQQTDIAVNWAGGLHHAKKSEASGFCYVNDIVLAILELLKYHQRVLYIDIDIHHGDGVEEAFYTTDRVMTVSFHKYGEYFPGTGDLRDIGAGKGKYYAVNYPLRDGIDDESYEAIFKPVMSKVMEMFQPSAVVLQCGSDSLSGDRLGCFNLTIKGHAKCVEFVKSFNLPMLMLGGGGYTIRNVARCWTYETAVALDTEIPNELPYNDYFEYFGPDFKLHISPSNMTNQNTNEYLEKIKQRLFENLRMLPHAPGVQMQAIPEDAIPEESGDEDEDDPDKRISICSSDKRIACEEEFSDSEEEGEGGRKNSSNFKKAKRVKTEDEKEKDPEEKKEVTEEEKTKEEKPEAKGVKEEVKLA

The IC50 is the concentration that inhibits the measured activity by half. Take `Cc1ccccc1Nc1ncnc2cc(NC(=O)CCCCCC(=O)NO)sc12`: the IC50 on Histone deacetylase 1 [1] came to 138 nM; at Histone deacetylase 3 it was 98.8 nM; in assay [2] it was 87.6 nM; in the assay with RPMI-8226 it was 1750 nM; in the assay with HCT-116 it was 2560 nM.

`COc1cccc(Nc2ncnc3cc(NC(=O)CCCCCCC(=O)NO)sc23)c1`: the IC50 on Histone deacetylase 1 [1] was 62.2 nM; on Histone deacetylase 3, 21.4 nM; in assay [2] it was 20.9 nM; in the assay on RPMI-8226, 1260 nM; in the assay on HCT-116 it was 1330 nM. The inhibition entry (on Histone deacetylase 1 [3]; in assay [4]) was “Dose-dependent effect” throughout.

For `N#Cc1cccc(Nc2ncnc3cc(NC(=O)CCCCCCC(=O)NO)sc23)c1`, the 50% inhibitory concentration (IC50) amounted to 45 nM at Histone deacetylase 1 [1]; 19.8 nM on Histone deacetylase 3; 20.1 nM in assay [2]; 1580 nM with RPMI-8226; 2090 nM in the assay on HCT-116. Moreover, the inhibition result (on Histone deacetylase 1 [3]; in assay [4]) was “Dose-dependent effect” each time.

With `COc1ccc(Nc2ncnc3cc(NC(=O)CCCCCCC(=O)NO)sc23)c(C)c1`, the half-inhibitory concentration (IC50) amounted to 117 nM on Histone deacetylase 1 [1]; 144 nM on Histone deacetylase 3; 111 nM in assay [2]; 1980 nM in the assay on RPMI-8226; 2480 nM with HCT-116.

As to `O=C(CCCCCCC(=O)Nc1cc2ncnc(Nc3cccc(Br)c3)c2s1)NO`, the IC50 on Histone deacetylase 1 [1] is 54.5 nM; at Histone deacetylase 3 it was 33.8 nM; in assay [2] it was 16.9 nM; in the assay with RPMI-8226, 1750 nM; in the assay with HCT-116, 1740 nM.

For the compound `CCc1cccc(Nc2ncnc3cc(NC(=O)CCCCCCC(=O)NO)sc23)c1`, the IC50 was found to be 116 nM on Histone deacetylase 1 [1]; 147 nM at Histone deacetylase 3; 58.5 nM in assay [2]; 1570 nM in the assay on RPMI-8226; 1440 nM in the assay on HCT-116.

Consider `O=C(CCCCCCC(=O)Nc1cc2ncnc(Nc3cccc(Cl)c3)c2s1)NO`, for which the IC50 at Histone deacetylase 1 [1] is 53.8 nM; at Histone deacetylase 3, 45.5 nM; in assay [2], 33.8 nM; in the assay on RPMI-8226, 1520 nM; with HCT-116, 1820 nM.

On to `O=C(CCCCCCC(=O)Nc1cc2ncnc(Nc3cccc(F)c3)c2s1)NO`, for which the half-maximal inhibitory concentration (IC50) at Histone deacetylase 1 [1] was determined as 73.7 nM; on Histone deacetylase 3, 64.5 nM; in assay [2] it was 42.5 nM; with RPMI-8226, 1630 nM; with HCT-116, 1780 nM.
